Values of other authors, collected in US10273546B2, “Method and composition for diagnosis or treatment of aggressive prostate cancer” (The Trustees of Columbia University in the City of New York, priority 2014, dated 2019).

What was measured:
[1] = human, in vivo
Apo-B = details: animal models

In the case of Mipomersen, the toxic effects [1] is given as “relatively mild” and the “repression of target apo-B expression” value (Apo-B) is given as “robust and prolonged repression”.
